The numbers were not newly measured in patent US20230346892A1, “TREATMENT OF LONG BONE FRACTURES WITH ABALOPARATIDE” (Radius Health, Inc., priority 2021, published 2023), which cites them from elsewhere.

The test system of data set [1] is internally fixed femur fractures. As to conditions: rats with internally fixed femur fractures; Lanske et al. 2019.

As to abaloparatide, the fracture healing result in data set [1] is “improved fracture healing”. Moreover, the “bone mineral density increases” value in the data set on osteoporosis (compared with teriparatide, treating osteoporosis, Sleeman 2019, Miller 2016) was “greater bone mineral density increases”. Besides, the hypercalcemia entry in the data set with osteoporosis (in vivo) is listed as “less hypercalcemia”.
